In ChEMBL document CHEMBL1129064, “Design and synthesis of 2',3'-dideoxy-2',3'-didehydro-beta-L-cytidine (beta-L-d4C) and 2',3'-dideoxy 2',3'-didehydro-beta-L-5-fluorocytidine (beta-L-Fd4C), two exceptionally potent inhibitors of human hepatitis B virus (HBV) and potent inhibitors of human immunodeficiency virus (HIV) in vitro” (1996):

Experiments:
Format in all cases: functional
Settings in all cases: Homo sapiens, read-out: ED50 (the source's name)
[1] = system: CCRF-CEM; assay: In vitro concentration required to decrease 50% of mitochondrial DNA content in CEM cells
[2] = system: HepG2; assay: Concentration required to inhibit 50% of extracellular circular replication of HBV DNA using 2215 cell line
[3] = system: MT2; assay: Concentration required to inhibit 50% of HIV activity in MT-2 cells
[4] = system: HepG2; assay: Concentration required to inhibit 50% of intracellular circular replication of HBV DNA using 2215 cell line
[5] = system: CCRF-CEM; assay: In vitro concentration required to inhibit 50% of CEM cell growth

SMILES | EC50 [1] | EC50 [2] | EC50 [3] | EC50 [4] | EC50 [5]
Nc1ccn([C@H]2C=C[C@@H](CO)O2)c(=O)n1 | > 20 µM | 10 nM | 1000 nM | 8 nM | 20 µM
Nc1ccn([C@@H]2CC[C@H](CO)O2)c(=O)n1 | 0.022 µM | 5200 nM | 1500 nM | 6200 nM | 10 µM
Nc1ccn([C@@H]2C=C[C@H](CO)O2)c(=O)n1 | 2 µM | 3000 nM | 700 nM | – | 22 µM
Nc1nc(=O)n([C@@H]2CC[C@H](CO)O2)cc1F | > 100 µM | 55 nM | 500 nM | 36 nM | 67 µM
Nc1nc(=O)n([C@@H]2C=C[C@H](CO)O2)cc1F [ELVUCITABINE] | > 100 µM | 2 nM | 90 nM | 2 nM | 7 µM
Nc1nc(=O)n([C@@H]2CS[C@H](CO)O2)cc1F [EMTRICITABINE] | > 50 µM | 17 nM | 2000 nM | 30 nM | 50 µM
